Assay results taken from US11985994B2, “Sweetener and flavor compositions, methods of making and methods of use thereof” (EPC Natural Products Co., Ltd., priority 2018, dated 2024).
Where two headings read alike, the source gives them in different places. Residues, ends and D or L forms follow the SMILES beside them.

What was measured:
[1] = Sensory evaluation (smell, color, taste) of Maillard reaction samples, Examples 52, 55-63; parameters: species or system human
Experimental: For evaluation of the taste profile, the samples were tested by a panel of four people. 1 trained taster tasted independently the samples first. The taster was asked to describe the taste profile and score 0-5 according to the increasing sugar likeness, bitterness, aftertaste and lingering taste profiles. The first taster was allowed to re-taste, and then make notes for the sensory attributes perceived. Afterwards, another 3 tasters tasted and the attributes were noted and discussed openly to find a suitable description. In case that more than 1 taster disagreed with the results, the tasting was repeated. In some sensory test results (above), the taste rating was expressed by “+”, which means the intensity of the factors is shown by three levels. “+” for slight, “++” for moderate and “+++” for very strong.
All samples were assessed at 22° C. after the Maillard reaction was stopped by placing the sealed vials in an ice bath. After 20 minutes in the ice bath the sealed vials were put in a water bath set to 22° C.
The odor/smell was assessed independently by 3 persons; the final description was agreed after discussion. […] The taste was assessed independently by 3 persons either in the original samples or after appropriate dilution to achieve relevant concentrations of sugars and steviol-glycosides (i.e. 5-9% SE); the final description was agreed after discussion.

[2] = cited from earlier work
[3] = Assay to test DPPH radical-scavenging activity (Example 65); format: physicochemical; settings: combinations of amino acids and Reb-A, 100 °C; less pronounced than glucose or xylose
Experimental: 1 mg 1,1-Diphenyl-2-picrylhydrazyl radical (DPPH)/ml ethanol, dilution to assay concentration were prepared in ethanol (40 μg/mL); Calibration samples were prepared with Ascorbic acid in a concentration of 0-10 μg/mL, as a negative control sample, water was used.
Samples in aqueous solution were used as such or diluted with water.
A 0.1 ml sample (or calibration standard) was mixed with 3.9 ml solution of DPPH (100 μMolar) and reacted while protected from light at room temperature for 30 min. Absorbance was determined at 517 nm against ethanol.
10 mM of amino acid and/or 10 mM sugar were dissolved in 10 ml 0.1 mM KH2PO4-buffer, pH=7.8.
The samples were kept at 100° C. in sealed glass vials (Pyrex 15 ml with screw caps) for 0 (before reaction), 2.5 or 5.0 hours. Thereafter the samples were transferred to an ice water bath and cooled down to room temperature. These samples were diluted 1:10 and used for the test assay for anti-oxidant potential.

[4] = HPLC/DAD/MS analysis of reaction partners and MRI (Amadori) products; format: physicochemical; settings: 120 °C; for consumption in the reaction with Phe: KH2PO4 pH 7.8, 2.5 h, glucose present or not
Experimental: Quantitative evaluation was performed using external standardization.

[5] = Sensory evaluation (smell, color, taste) of Maillard reaction samples, Examples 52, 55-63; parameters: species or system human; settings: before reaction, 10 ml KH2PO4 pH 7.8 (Example 57)
[6] = Sensory evaluation of GSGs and SGs, thaumatin, NHDC and combinations (Example 255); parameters: species or system human
Experimental: 4.5 ppm Thaumatin (equivalent to 10 ppm EPCalin) was dissolved in water. Increasing amounts of NHDC (1-5 ppm) were added to the solution and the sensory properties were evaluated.
50 ppm (GSGs and SGs) were dissolved in water. Increasing amounts of NHDC (1-5 ppm) were added to the solution and the sensory properties were evaluated.
50 ppm (GSGs and SGs) and 4.5 ppm Thaumatin (equivalent to 10 ppm EPCalin) were dissolved in water. Increasing amounts of NHDC (1-5 ppm) were added to the solution and the sensory properties were evaluated.
Sweetness intensity was rated on 5-point scale

[7] = 1 ml water + 9 ml Glycerin, 2.0 h, 120 °C
[8] = Table 52.2: 1 ml water + 9 ml Glycerin, 0.67 h, 100 °C
[9] = negative controls (no carbohydrate source), 10 ml glycerin/water, 100 °C, 40 minutes
[10] = depends on the tested concentration compared with sucrose
[11] = after reaction, 10 ml KH2PO4 pH 7.8, 2.5 h, 120 °C (Example 57)
[12] = after reaction, 10 ml KH2PO4 pH 7.8, 2.5 h, 120 °C (Example 58)
[13] = before reaction, 10 ml KH2PO4 pH 7.8 (Example 58)
[14] = 1 ml water + 9 ml Glycerin, 1 h, 100 °C
[15] = Table 52.3: 1 ml water + 9 ml Glycerin, 0.67 h, 100 °C

In the case of `N[C@@H](Cc1ccccc1)C(=O)O` [0.1 mMol Phe, Phenylalanine], the Color [1, 7] is reported as “Slightly Yellow”, the “Intensity of Smell” value [1, 7] is reported as “+” and the Smell [1, 7] is reported as “Caramel, burnt”. The Taste [1, 7] was “sweet”, the Color [1, 8] was “Slightly Yellow” and the Smell [1, 8] was “flowery/bloomy,”. The Taste [1, 8] was “sweet”.

With `O=C[C@H](O)[C@@H](O)[C@H](O)[C@H](O)C(=O)O` [0.1 mMol Gluc Acid, Glucuronic Acid] the Color [1, 7] was “Almost black”, the “Intensity of Smell” value [1, 7] was “+++” and the Smell [1, 7] was “burnt bread”. The Taste [1, 7] was “Bitter”.

For `N[C@@H](CS)C(=O)O` [12.1 mg Cys, Cysteine], the Color [1, 9] was “Slightly Yellow”, the Smell [1, 9] was “Unpleasant (sulfur)” and the Taste [1, 9] was “Slightly sweet”.

With `N[C@@H](CO)C(=O)O` [10.5 mg Ser, Serine] the Color [1, 9] was “Slightly Yellow”, the Smell [1, 9] was “Lotus flower” and the Taste [1, 9] was “Slightly sweet”.

For MoneIlin, the Sweetness by weight ([2]; compared to sucrose) is given as 800-2,000.

In the case of `C=C1C[C@@]23CC[C@H]4[C@@](C)(CCC[C@@]4(C)C(=O)O[C@@H]4O[C@H](CO)[C@@H](O)[C@H](O)[C@H]4O)[C@@H]2CC[C@]1(O[C@@H]1O[C@H](CO)[C@@H](O)[C@H](O[C@@H]2O[C@H](CO)[C@@H](O)[C@H](O)[C@H]2O)[C@H]1O[C@@H]1O[C@H](CO)[C@@H](O)[C@H](O)[C@H]1O)C3` [Reb-A, Rebaudioside A], the anti-oxidant properties [3] is reported as “substantial anti-oxidant properties”.

In the case of `COC(=O)[C@H](Cc1ccccc1)NC(=O)[C@@H](N)CC(=O)O` [Aspartame] (H-Asp-Phe-OMe), the sweetness [2, 10] is given as 160-200 times sweeter than sucrose.

With `O=C[C@H](O)[C@H]1OC(=O)[C@@H](O)[C@H]1O` [0.1 mMol GlucLac, Glucuronolactone] the Color [1, 7] was “Almost black”, the “Intensity of Smell” value [1, 7] was “+++” and the Smell [1, 7] was “Burnt sugar”. For the same compound, the Taste [1, 7] was “Bitter”.

In the case of `N[C@@H](Cc1ccccc1)C(=O)O` [3.3 mMol Phe, Phenylalanine], the Color ([1]; Glycerin 10 ml, 100 °C, 5 min) is reported as “No color”, the Smell ([1]; Glycerin 10 ml, 100 °C, 5 min) is reported as “Slightly bloomy” and the Color ([1]; Glycerin 10 ml, 100 °C, 10 min) is reported as “No color”. For the same compound, the Smell ([1]; Glycerin 10 ml, 100 °C, 10 min) was “flowery/bloomy”, the Color ([1]; Glycerin 10 ml, 100 °C, 20 min) was “Slightly Yellow” and the Smell ([1]; Glycerin 10 ml, 100 °C, 20 min) was “flowery/bloomy”. For the same compound, the Color ([1]; Glycerin 10 ml, 100 °C, 40 min) was “Yellow-slightly”, the Smell ([1]; Glycerin 10 ml, 100 °C, 40 min) was “flowery/bloomy” and the Color ([1]; Glycerin 10 ml, 1 h, 120 °C) was “Brown”. For the same compound, the Smell ([1]; Glycerin 10 ml, 1 h, 120 °C) was “flowery/bloomy”.

In the case of `O=S(=O)([O-])NC1CCCCC1.[Na+]` [sodium cyclamate], the sweetness [2, 10] is listed as “about 30 times sweeter than sucrose”.

For `OC[C@H]1O[C@H](O[C@]2(CCl)O[C@H](CCl)[C@@H](O)[C@@H]2O)[C@H](O)[C@@H](O)[C@H]1Cl` [sucralose], the sweetness [2, 10] is listed as “about 600 times sweeter than sucrose”.

With `C[C@H](N)C(=O)O` [0.1 mMol Ala, Alanine] the Color [1, 8] was “No Color”.

With `O=C[C@H](O)[C@H]1OC(=O)[C@@H](O)[C@H]1O` [Glucuronolactone] the Color [1, 11] was “Deep Yellow”, the Smell [1, 11] was “Burnt sugar” and the Taste [1, 11] was “Bitter”. The “consumption in the reaction with Phe” value [4] was “completely consumed”.

In the case of `NCCCC[C@H](N)C(=O)O` [14.7 mg Lys, Lysine], the Color [1, 9] is reported as “brown”, the Smell [1, 9] is reported as “Popcorn” and the Taste [1, 9] is reported as “Slightly sweet”.

In the case of `N[C@@H](Cc1ccc(O)cc1)C(=O)O` [18.1 mg Tyr, Tyrosine], the Color [1, 9] is reported as “No color”, the Smell [1, 9] is reported as “neutral” and the Taste [1, 9] is reported as “Slightly sweet”.

In the case of `N[C@@H](Cc1ccccc1)C(=O)O` [16.5 mg Phe, Phenylalanine], the Color [5] is reported as “No color”, the Smell [5] is reported as “neutral” and the Taste [5] is reported as “No taste”. The Color [1, 12] was “Slightly Yellow”, the Smell [1, 12] was “Caramel, burnt” and the Taste ([1]; after reaction, after dilution 1:20 (Example 58)) was “Sweet”. For the same compound, the Color [1, 13] was “No color”, the Smell [1, 13] was “Neutral” and the Taste ([1]; before reaction, after dilution 1:20 (Example 58)) was “No taste”. The Color [1, 9] was “Very Slightly”, the Smell [1, 9] was “Bloomy, caramel” and the Taste [1, 9] was “Slightly sweet”.

In the case of `CSCC[C@H](N)C(=O)O` [14.9 mg Met, Methionine], the Color [1, 9] is reported as “Very Slightly”, the Smell [1, 9] is reported as “Sulfuric” and the Taste [1, 9] is reported as “Slightly sweet”.

In the case of `C=C1C[C@@]23CC[C@H]4[C@@](C)(CCC[C@@]4(C)C(=O)O[C@@H]4O[C@H](CO)[C@@H](O)[C@H](O)[C@H]4O)[C@@H]2CC[C@]1(O[C@@H]1O[C@H](CO)[C@@H](O)[C@H](O[C@@H]2O[C@H](CO)[C@@H](O)[C@H](O)[C@H]2O)[C@H]1O[C@@H]1O[C@H](CO)[C@@H](O)[C@H](O)[C@H]1O)C3` [0.05 mMol Reb-A, Rebaudioside A], the Color [1, 8] is reported as “Slightly Yellow”.

With `N[C@@H](Cc1ccccc1)C(=O)O` [Phe 60 mMol, Phenylalanine] the Color [1, 14] was “Slightly Yellow”, the Smell [1, 14] was “flowery/bloomy-caramel” and the Taste [1, 14] was “Sweet”.

In the case of `O=C[C@H](O)[C@@H](O)[C@H](O)CO` [10 mmol Xyl, Xylose], the Color ([1]; Glycerin 10 ml, 100 °C, 40 min) is reported as “Slightly Yellow”, the Smell ([1]; Glycerin 10 ml, 100 °C, 40 min) is reported as “Slightly Popcorn” and the Color ([1]; Glycerin 10 ml, 1 h, 120 °C) is reported as “No color”. The Smell ([1]; Glycerin 10 ml, 1 h, 120 °C) was “neutral”.

For `N[C@@H](Cc1c[nH]c2ccccc12)C(=O)O` [20.42 mg Try, Tryptophan], the Color [1, 9] was “Slightly Yellow”, the Smell [1, 9] was “Unpleasant (fecal)” and the Taste [1, 9] was “Slightly sweet”.

With `CC[C@H](C)[C@H](N)C(=O)O` [13.11 mg Ile, Isoleucine] the Color [1, 9] was “No color”, the Smell [1, 9] was “Coffee” and the Taste [1, 9] was “Slightly sweet”.

With `O=C(O)[C@@H]1CCCN1` [11.5 mg Pro, Proline] the Color [1, 9] was “Slightly Yellow”, the Smell [1, 9] was “Neutral, slightly” and the Taste [1, 9] was “Slightly sweet”.

In the case of `C[C@@H](O)[C@H](N)C(=O)O` [11.91 mg Thr, Threonine], the Color [1, 9] is reported as “Very Slightly”, the Smell [1, 9] is reported as “Vanilla, butter” and the Taste [1, 9] is reported as “Slightly sweet”.

For `O=C[C@H](O)[C@@H](O)[C@H](O)[C@H](O)C(=O)O` [18 mg Glucuronic Acid, Glucuronic Acid], the Color [5] was “No color”, the Smell [5] was “neutral” and the Taste [5] was “No taste”.

For `O=C[C@H](O)[C@@H](O)[C@H](O)CO` [Xyl, Xylose], the “% degradation” value ([4]; Phe + Xyl, pH = 7.0, 1.0 h) was 6.3%.

In the case of `C[C@H](N)C(=O)O` [8.91 mg Ala, Alanine], the Color [1, 9] is reported as “No color”, the Smell [1, 9] is reported as “Neutral, slightly Agar” and the Taste [1, 9] is reported as “Slightly sweet”.

In the case of `COc1ccc(CCC(=O)c2c(O)cc(O[C@@H]3O[C@H](CO)[C@@H](O)[C@H](O)[C@H]3O[C@@H]3O[C@@H](C)[C@H](O)[C@@H](O)[C@H]3O)cc2O)cc1O` [NHDC, Neohesperidin dihydrochalcone], the sweetness ([2]; at threshold concentrations) is listed as 1500-1800 times sweeter than sugar, the sweetness ([2]; weight-for-weight) is listed as “about 340 times sweeter than sugar” and the lingering ([6]; 4, 5 ppm added to 50 ppm GSGs and SGs and 4.5 ppm Thaumatin) is listed as “boosts the lingering”. The lingering ([6]; 4 and 5 ppm added to 4.5 ppm Thaumatin in water) was “long lasting lingering”.

With `NCCCC[C@H](N)C(=O)O` [0.1 mMol Lys, Lysine] the Color [1, 15] was “Brown”, the Smell [1, 15] was “Popcorn” and the Taste [1, 15] was “Sweet”.

In the case of `O=C[C@H](O)[C@@H](O)[C@H](O)CO` [167 mMol Xyl, Xylose], the Color [1, 14] is reported as “No color”, the Smell [1, 14] is reported as “neutral/meat” and the Taste [1, 14] is reported as “Sweet”.

With `O=C[C@H](O)[C@@H](O)[C@H](O)[C@H](O)C(=O)O` [Glucuronic Acid] the Color [1, 11] was “Deep Yellow”, the Smell [1, 11] was “burnt bread” and the Taste [1, 11] was “Bitter”. The “consumption in the reaction with Phe” value [4] was “completely consumed”.
